{"source": "patent US9593362B2", "about": "“Fluorogenic glycosidase substrate and associated detection method” (ECOLE NORMALE SUPERIEURE DE LYON, priority 2012, dated 2017)", "key": {"[1]": {"conditions": "cited from earlier work"}, "[2]": {"system": "beta-galactosidase (EC 3.2.1.23; b-gal)", "experiment": "Enzymatic assay: incubation of the probe with beta-galactosidase, microplate fluorescence", "format": "biochemical", "protocol": "(§1) Probe I.1 was evaluated by incubation with the target enzyme beta-galactosidase (EC 3.2.1.23; <<b-gal>>; commercial) in in vitro medium and in multi-well micro-plates designed for fluorescence readers.\n(§2) The main assays were conducted at 25° C. in solutions buffered at pH 7.4, physiological pH). Assays at 37° C. would have required protection of the wells against early evaporation e.g. by covering with a film which would have caused a strong reduction in the sensitivity of fluorescence measurement. A temperature of 25° C. was therefore preferred.\nIn the invention when implementing the enzymatic assays, once the minimum concentration allowing triggering of crystal nucleation is reached, there is depositing of a solid fluorophore in a well of a multi-well plate.\n(§3) The following enzymatic assays of probe I.1 were performed in a 96-well microplate in a microplate spectrofluorimeter of Mithras LB 940 type by BERTHOLD TECHNOLOGIES. The excitation wavelength was set at 355 and the detection wavelength at 510 nm, conforming to the spectral properties of dichloro-HPQ."}, "[3]": {"experiment": "Negative control of the enzymatic assay: probe in buffered aqueous medium without enzyme (background fluorescence / hydrolytic robustness)", "format": "physicochemical", "conditions": "probe 25 μM, no b-gal, pH 7.4, 25° C., excitation 355 / detection 510 nm", "protocol": "as §1, §2, §3"}, "[4]": {"system": "cells of C17.2 type which express the target enzyme b-gal constitutively", "experiment": "Incubation of the probe with C17.2 cells, microplate fluorescence", "format": "cell-based", "conditions": "probe 25 μM, culture plate without serum", "protocol": "The experiment was conducted in a cell culture plate without serum, and the fluorescence signal was measured by the microplate spectrofluorimeter of Mithras LB 940 type by BERTHOLD TECHNOLOGIES."}, "[5]": {"system": "cells expressing b-gal constitutively", "experiment": "Fluorescence microscopy of cells incubated with the probe", "format": "cell-based", "conditions": "probe 25 μM, 48 hours, serum-free medium", "protocol": "FIG. 4 is a microscope image of the fluorescence of cells expressing b-gal constitutively and which were incubated by probe I.1 at 25 μM for 48 hours in a serum-free medium."}}, "data": [{"compound": "O=c1[nH]c(-c2cc(Cl)ccc2O)nc2ccc(Cl)cc12", "note": "[dichloro-HPQ, 6-chloro-2-(5-chloro-2-hydroxyphenyl)-4(3H)-Quinazolinone]", "values": [{"measurement": "solubility in aqueous/physiological media", "setting": "[1]", "value": "fully insoluble"}]}, {"compound": "O=C(Oc1ccc(Cl)cc1-c1nc2ccc(Cl)cc2c(=O)[nH]1)N1CCCCC1CO[C@@H]1O[C@H](CO)[C@H](O)[C@H](O)[C@H]1O", "note": "(stereo partly shown) [probe I.1]", "values": [{"measurement": "trend in fluorescence signal with increasing probe concentration", "setting": "[2]; b-gal fixed at 20 μM, three concentrations of probe", "value": "Strong growth of the signal"}, {"measurement": "dependence of the fluorescence signal on the concentration of target enzyme", "setting": "[2]; probe fixed at 25 μM, three concentrations of b-gal", "value": "independency of the signal"}, {"measurement": "trend in the fluorescence signal in the absence of enzyme (negative control)", "setting": "[3]", "value": "total absence of a fluorescence signal"}, {"measurement": "capacity to cross the cell membrane", "setting": "[4]", "value": "cross the cell membrane"}, {"measurement": "conversion by intracellular b-gal (fluorescence signal)", "setting": "[4]", "value": "converted by the enzyme"}, {"measurement": "fluorescent precipitate in cells (microscope image)", "setting": "[5]", "value": "highly fluorescent dichloro-HPQ is precipitated"}]}]}
